Laboratory results taken from patent US20060020029A1, “Pharmaceutical compositions from ethnobotanicals” (priority 2004, published 2006).
Converted amounts (≈) assume the structure as drawn.

How the values were obtained:
[1] = tested on: RSV-Long (Cotton Rat adapted strain); assay: CPE assay, RSV-Long cotton rat adapted strain; format: cell-based, respiratory syncytial virus
RSV-A6 57754 = assay: CPE assay, RSV-A6 57754 in Hep-2 cells
Description: The cell line was propagated in MEM supplemented with 10% heat-inactivated fetal bovine serum (FBS) containing 100 μg/ml of antibiotics (streptomycin/penicillin). […] The overnight medium (MEM containing 10% FBS) was removed, and wells were rinsed twice with 1× phosphate buffer saline (PBS, 200 μl) before adding 10×TCID50 of RSV suspension in fresh medium (MEM plus 2% FBS) to each well, except for cell only wells. […] CellTiter 96 Aqueous Non-Radioactive Cell Proliferation Assay (Promega) was used to monitor the antiviral activity following the manufacturer's instruction. After incubation, the cells were rinsed twice with 200 μl of 1×PBS prior to the addition of 100 μl of fresh medium (MEM plus 10% FBS). […] The extent of cell viability was measured at 490 nm using an ELISA reader, and the absorbance was used to calculate percent inhibition. Antiviral activity of each EB fraction or ribavirin is expressed as IC50, which represents the concentration of the test substance required to reduce the virus infection (as measured by the destruction of the host cells) by 50%.
Hep-2 cells were used in the CPE assay to determine anti-RSV properties.

RSV (Long strain) = assay: CPE assay, RSV-Long in Hep-2 cells; format: cell-based, respiratory syncytial virus; settings: Hep-2 cells, CPE assay; for EC50: μM using the estimated FW-516
[2] = tested on: Herpes simplex virus type 1 (MacIntyre strain); assay: CPE assay, HSV-1 specificity; format: cell-based
Description: (§1) To determine whether the fractions are specific RSV inhibitors rather than general antiviral agents, the inventors tested them against influenza type A/Shangdong/09/93 (H3N2), herpes simplex type 1 (MacItyre), and herpes simplex type 2 (MS) using the CPE assay system.
(§2) CJ4-16-4 was tested using influenza type A, herpes simplex virus type 1, and herpes simplex virus type 2 using the CPE assay with MDCK or Vero cells.

[3] = tested on: Herpes simplex virus type 2 (MS-strain); assay: CPE assay, HSV-2 specificity; format: cell-based
Description: as §1, §2

RSV B = assay: CPE assay, RSV-B in Hep-2 cells; format: cell-based, respiratory syncytial virus
[4] = Stability in methanol (HPLC); format: physicochemical
Description: The stability of 3,5 Dicaffeoyl-Quinic Acid (3,5-DCQA) was first evaluated in methanol. 3.8 mg 3,5-DCQA was dissolved in 0.2375 ml MeOH (conc.=16 mg/ml), and then diluted as ½, ¼ and ⅛ dilution, respectively. All samples were subjected to HPLC in 0 Day, 1 Day, 2 Day and 4 Day, and the Area% of 3,5-DCQA was calculated.

[5] = Stability in DMSO / water (HPLC); format: physicochemical
Description: Next, the stability of 3,5-DCQA was evaluated in various concentrations of DMSO. 5.2 mg 3,5-DCQA was dissolved in 0.208 ml DMSO (conc.=25 mg/ml), and then diluted with water as 40% DMSO in water solution, 20% DMSO in water solution, and 10% DMSO in water solution, respectively. All samples were subjected on HPLC in 0 Day, 1 Day, 2 Day and 4 Day, and the Area % of 3,5-DCQA was calculated.
In the presence of water, 3,5-DCQA was converted into 4,5-dicaffeoylquinic acid (4,5-DCQA), as observed using HPLC. HPLC analysis of 3,5-DCQA in DMSO and H2O (conc.=2.5 mg/ml) at 0 day, 2 Day and 4 Day indicated a progressive degradation of 3,5-DCQA. By the forth day in 10% DMSO in H2OP, over 11% of 3,5-DCQA was changed into 4,5-DCQA.

MDCK cells = assay: Cytotoxicity in MDCK cells
[6] = tested on: Influenza A-Shangdong/09/93 (H3N2); assay: CPE assay, influenza A specificity; format: cell-based, influenza type A
Description: as §1, §2

RSV-Long = assay: Time of addition, CPE assay; format: cell-based, respiratory syncytial virus; settings: for EC50, time of addition: Hep-2; for EC50: estimated FW-516
Description: Determine the Time of Addition for EB Fractions. […] This activity is related to the life cycle of the virus and the step in the cycle where the compounds act. In this example, experiments were performed to investigate the effect of the time of addition of EB fractionated products on anti-RSV activity.
Mechanism of action studies were performed as follows. Mechanism of action studies were performed using CJ4-16-4 in a CPE assay with Hep-2 cells.

[7] = Stability in increasing concentrations of water (HPLC); format: physicochemical; settings: for Area % of 3,5-DCQA (HPLC): Table 24 (in H2O)
Description: The rate of degradation of 3,5-DCQA was again tested in increasing concentrations of water. 5.4 mg 3,5-DCQA was dissolved in 0.266ml DMSO (conc.=20.3 mg/ml), and then diluted with water to ½, ¼ and ⅛ dilution, respectively. All samples were subjected on HPLC in 0 Day, 1 Day, 2 Day and 4 Day, and Area % of 3,5-DCQA was calculated.

[8] = CPE assay with MDCK or Vero cells

With `O=C(/C=C/c1ccc(O)c(O)c1)OC1CC(O)(C(=O)O)CC(OC(=O)/C=C/c2ccc(O)c(O)c2)C1O` (stereo not drawn) [CJ4-16-4, 3,5-di-O-caffeoylquinic acid] the “EC50, RSV-Long (Cotton Rat adapted strain)” value ([1]; Hep-2 cells, CPE assay) was 1.4 µg/mL (≈ 2.71 µM), the EC50 ([1]; μM using the estimated FW-516) was 2.7 µM and the “EC50, RSV-A6 57754” value (RSV-A6 57754; Hep-2 cells, CPE assay) was 0.08 µg/mL (≈ 0.155 µM). The EC50 (RSV-A6 57754; read-out: EC50, RSV-A6 57754, μM using the estimated FW-516) was 0.16 µM, the “EC50, RSV-Long” value (RSV (Long strain)) was 0.035 µg/mL (≈ 0.0678 µM) and the EC50 (RSV (Long strain)) was 0.068 µM. The EC50 (RSV (Long strain); listed as 3,5 dicaffeoyl-quinic acid) was roughly 0.068 µM, the EC50 (RSV (Long strain); listed as IV) was 0.068 µM and the “activity against HSV-1 (in words)” value [2] was “inactive”. For the same molecule, the “EC50, Herpes simplex virus type 1 (MacIntyre strain)” value [2, 8] was greater than 50 µg/mL, the EC50 ([2]; μM using the estimated FW-516) was greater than 100 µM and the “activity against HSV-2 (in words)” value [3] was “inactive”. The “EC50, Herpes simplex virus type 2 (MS-strain)” value [3, 8] was greater than 50 µg/mL, the EC50 ([3]; μM using the estimated FW-516) was greater than 100 µM and the “EC50, RSV-B (Washington)” value (RSV B; Hep-2 cells, CPE assay) was 0.086 µg/mL (≈ 0.167 µM). For the same molecule, the EC50 (RSV B; μM using the estimated FW-516, read-out: EC50, RSV-B (Washington)) was 0.167 µM, the “Area % of 3,5-DCQA (HPLC)” value ([4]; Stock (16 mg/ml), 0 Day) was 97.40 Area% and the “Area % of 3,5-DCQA (HPLC)” value ([4]; Stock (16 mg/ml), 1 Day) was 97.16 Area%. For the same molecule, the “Area % of 3,5-DCQA (HPLC)” value ([4]; Stock (16 mg/ml), 2 Day) was 96.42 Area%, the “Area % of 3,5-DCQA (HPLC)” value ([4]; Stock (16 mg/ml), 4 Day) was 95.39 Area% and the “Area % of 3,5-DCQA (HPLC)” value ([4]; ¼ dilution, 2 Day) was 96.65 Area%. The “Area % of 3,5-DCQA (HPLC)” value ([4]; ¼ dilution, 4 Day) was 95.88 Area%, the “Area % of 3,5-DCQA (HPLC)” value ([4]; ½ dilution, 2 Day) was 97.03 Area% and the “Area % of 3,5-DCQA (HPLC)” value ([4]; ½ dilution, 4 Day) was 95.66 Area%. For the same molecule, the “Area % of 3,5-DCQA (HPLC)” value ([4]; ⅛ dilution, 0 Day) was 97.32 Area%, the “Area % of 3,5-DCQA (HPLC)” value ([4]; ⅛ dilution, 1 Day) was 96.84 Area% and the “Area % of 3,5-DCQA (HPLC)” value ([4]; ⅛ dilution, 2 Day) was 94.44 Area%. The “Area % of 3,5-DCQA (HPLC)” value ([4]; ⅛ dilution, 4 Day) was 94.27 Area%, the “3,5-DCQA changed into 4,5-DCQA” value ([5]; 10% DMSO in H2O (2.5 mg/ml), fourth day) was “over 11%” and the “Area % of 3,5-DCQA (HPLC)” value ([5]; 10% DMSO in H2O, 0 Day) was 97.25 Area %. The “Area % of 3,5-DCQA (HPLC)” value ([5]; 10% DMSO in H2O, 1 Day) was 93.60 Area %, the “Area % of 3,5-DCQA (HPLC)” value ([5]; 10% DMSO in H2O, 2 Day) was 89.50 Area % and the “Area % of 3,5-DCQA (HPLC)” value ([5]; 10% DMSO in H2O, 4 Day) was 86.01 Area %. For the same molecule, the “Area % of 3,5-DCQA (HPLC)” value ([5]; 20% DMSO in H2O, 1 Day) was 94.56 Area %, the “Area % of 3,5-DCQA (HPLC)” value ([5]; 20% DMSO in H2O, 2 Day) was 91.91 Area % and the “Area % of 3,5-DCQA (HPLC)” value ([5]; 20% DMSO in H2O, 4 Day) was 89.08 Area %. The “Area % of 3,5-DCQA (HPLC)” value ([5]; 40% DMSO in H2O, 1 Day) was 96.33 Area %, the “Area % of 3,5-DCQA (HPLC)” value ([5]; 40% DMSO in H2O, 2 Day) was 94.72 Area % and the “Area % of 3,5-DCQA (HPLC)” value ([5]; 40% DMSO in H2O, 4 Day) was 93.90 Area %. For the same molecule, the “Area % of 3,5-DCQA (HPLC)” value ([5]; 100% DMSO (25 mg/ml), 0 Day) was 97.28 Area %, the “Area % of 3,5-DCQA (HPLC)” value ([5]; 100% DMSO (25 mg/ml), 1 Day) was 97.34 Area % and the “Area % of 3,5-DCQA (HPLC)” value ([5]; 100% DMSO (25 mg/ml), 2 Day) was 97.15 Area %. For the same molecule, the “Area % of 3,5-DCQA (HPLC)” value ([5]; 100% DMSO (25 mg/ml), 4 Day) was 97.09 Area %, the “degradation in 100% DMSO (in words)” value ([5]; 100% DMSO, up to 4 Day) was “No statistically significant degradation” and the “CC50, MDCK” value (MDCK cells; isolated compounds) was greater than 200 µg/mL. For the same molecule, the CC50 (MDCK cells; read-out: CC50, MDCK, μM using the estimated FW-516) was greater than 400 µM, the “activity against Influenza A (in words)” value [6] was “inactive” and the “EC50, Influenza A-Shangdong/09/93 (H3N2)” value [6, 8] was greater than 50 µg/mL. For the same molecule, the EC50 ([6]; μM using the estimated FW-516) was greater than 100 µM, the “EC50, time of addition” value (RSV-Long; 0-Hr-Post-infection) was 0.051 µg/mL and the EC50 (RSV-Long; 0-Hr-Post-infection) was 99 nM. For the same molecule, the “EC50, time of addition” value (RSV-Long; 2-Hr-Post-infection) was 0.036 µg/mL, the EC50 (RSV-Long; 2-Hr-Post-infection) was 70 nM and the “EC50, time of addition” value (RSV-Long; 4-Hr-Post-infection) was 0.039 µg/mL. For the same molecule, the EC50 (RSV-Long; 4-Hr-Post-infection) was 76 nM, the “EC50, time of addition” value (RSV-Long; 6-Hr-Post-infection) was 0.043 µg/mL and the EC50 (RSV-Long; 6-Hr-Post-infection) was 83 nM. The “EC50, time of addition” value (RSV-Long; 8-Hr-Post-infection) was 0.039 µg/mL, the EC50 (RSV-Long; 8-Hr-Post-infection) was 76 nM and the “EC50, time of addition” value (RSV-Long; 24-Hr-Post-infection) was 0.069 µg/mL. The EC50 (RSV-Long; 24-Hr-Post-infection) was 130 nM, the CC50 (Vero cells) was greater than 400000 nM and the “CC50, Vero” value (Vero cells) was greater than 200 µg/mL. For the same molecule, the “Area % of 3,5-DCQA (HPLC)” value ([7]; Stock (20.3 mg/ml), 0 Day) was 97.05 Area %, the “Area % of 3,5-DCQA (HPLC)” value ([7]; Stock (20.3 mg/ml), 1 Day) was 96.09 Area % and the “Area % of 3,5-DCQA (HPLC)” value ([7]; Stock (20.3 mg/ml), 2 Day) was 93.94 Area %. The “Area % of 3,5-DCQA (HPLC)” value ([7]; Stock (20.3 mg/ml), 4 Day) was 91.90 Area %, the “Area % of 3,5-DCQA (HPLC)” value ([7]; ¼ dilution with water, 1 Day) was 92.79 Area % and the “Area % of 3,5-DCQA (HPLC)” value ([7]; ¼ dilution with water, 2 Day) was 91.06 Area %. For the same molecule, the “Area % of 3,5-DCQA (HPLC)” value ([7]; ¼ dilution with water, 4 Day) was 88.14 Area %, the “Area % of 3,5-DCQA (HPLC)” value ([7]; ½ dilution with water, 1 Day) was 94.62 Area % and the “Area % of 3,5-DCQA (HPLC)” value ([7]; ½ dilution with water, 2 Day) was 92.71 Area %. For the same molecule, the “Area % of 3,5-DCQA (HPLC)” value ([7]; ½ dilution with water, 4 Day) was 90.20 Area %, the “Area % of 3,5-DCQA (HPLC)” value ([7]; ⅛ dilution with water, 0 Day) was 96.91 Area % and the “Area % of 3,5-DCQA (HPLC)” value ([7]; ⅛ dilution with water, 1 Day) was 92.60 Area %. For the same molecule, the “Area % of 3,5-DCQA (HPLC)” value ([7]; ⅛ dilution with water, 2 Day) was 89.02 Area %, the “Area % of 3,5-DCQA (HPLC)” value ([7]; ⅛ dilution with water, 4 Day) was 85.55 Area % and the “3,5-DCQA changed into 4,5-DCQA” value ([7]; fourth day in solution) was “over 11%”.
